Data: patent publication US11084790B2, “Insoluble complex or solvate thereof, pharmaceutical composition and use thereof” (Fruithy Holdings Limited, priority 2017, dated 2021)
Values after ≈ are worked out from the molar mass of the structure shown.

Assay: Test on the solubility in a simulated body fluid
Format: physicochemical
Conditions: for Compound concentration: Bupivacaine / Compound concentration: DTTA / Compound concentration: DBTA / Compound concentration: Ropivacaine / Compound concentration: Pamoic acid / solubility: 0.01 M PBS pH 7.4, 37° C.
Experimental: Test on the Solubility in a Simulated Body Fluid
The concentration of the drug dissolved in the PBS buffered solution was determined with an HPLC-a method.

Row | SMILES | Compound concentration: Bupivacaine (5 min) [µM] | Compound concentration: Bupivacaine (15 min) [µM] | Compound concentration: Bupivacaine (30 min) [µM] | Compound concentration: Bupivacaine (1 h) [µM] | Compound concentration: Bupivacaine (2 h) [µM] | Compound concentration: Bupivacaine (6 h) [µM] | Compound concentration: Bupivacaine (24 h) [µM] | Compound concentration: Pamoic acid (5 min) [µM] | Compound concentration: Pamoic acid (15 min) [µM] | Compound concentration: Pamoic acid (30 min) [µM] | Compound concentration: Pamoic acid (1 h) [µM] | Compound concentration: Pamoic acid (2 h) [µM] | Compound concentration: Pamoic acid (6 h) [µM] | Compound concentration: Pamoic acid (24 h) [µM] | stability of the suspension (ratio between acid radical and basic group) (simulated body fluid) | solubility (simulated body fluid) | also measured
1 | CCCCN1CCCCC1C(=O)Nc1c(C)cccc1C.Cc1ccc(C(=O)OC(C(=O)O)C(OC(=O)c2ccc(C)cc2)C(=O)O)cc1 (stereo not shown) [Preparation Example 3, mono(bupivacaine) di-p-toluoyl tartarate] | 7947.6 | 7862.6 | 7662.2 | 7519 | 7719.3 | 7883.2 | 7917.8 |  |  |  |  |  |  |  |  |  | Compound concentration: DTTA (5 min): 7316.3 µM; Compound concentration: DTTA (15 min): 7244.6 µM; Compound concentration: DTTA (30 min): 7012.2 µM; Compound concentration: DTTA (1 h): 6900.6 µM; Compound concentration: DTTA (2 h): 7048.1 µM; Compound concentration: DTTA (6 h): 7211.7 µM; Compound concentration: DTTA (24 h): 7249 µM
2 | CCCCN1CCCCC1C(=O)Nc1c(C)cccc1C.CCCCN1CCCCC1C(=O)Nc1c(C)cccc1C.O=C(OC(C(=O)O)C(OC(=O)c1ccccc1)C(=O)O)c1ccccc1 (stereo not shown) [Preparation Example 2, bis(bupivacaine) dibenzoyl tartarate] | 819 | 1593.7 | 2133.2 | 2848.7 | 3565.4 | 6577 | 6389.6 |  |  |  |  |  |  |  |  |  | Compound concentration: DBTA (5 min): 769.6 µM; Compound concentration: DBTA (15 min): 1550.4 µM; Compound concentration: DBTA (30 min): 2183.8 µM; Compound concentration: DBTA (1 h): 3035.9 µM; Compound concentration: DBTA (2 h): 3953.3 µM; Compound concentration: DBTA (6 h): 6336.3 µM; Compound concentration: DBTA (24 h): 6122.7 µM
3 | CC1(C)C2CCC1(CS(=O)(=O)O)C(=O)C2.CCCCN1CCCCC1C(=O)Nc1c(C)cccc1C (stereo not shown) [Preparation Example 8, bupivacaine camphorsulfonate] | 47678.3 | 57125.4 | 68314.9 | 68195.8 | 68902.6 | 71253.9 | 66020 |  |  |  |  |  |  |  |  |  | 
4 | CCCN1CCCC[C@H]1C(=O)Nc1c(C)cccc1C.CCCN1CCCC[C@H]1C(=O)Nc1c(C)cccc1C.Cc1ccc(C(=O)OC(C(=O)O)C(OC(=O)c2ccc(C)cc2)C(=O)O)cc1 (stereo not shown) [Preparation Example 6, bis(ropivacaine) di-p-toluoyl tartarate] |  |  |  |  |  |  |  |  |  |  |  |  |  |  |  |  | Compound concentration: DTTA (5 min): 13380.8 µM; Compound concentration: Ropivacaine (5 min): 26058.5 µM; Compound concentration: DTTA (15 min): 15017.3 µM; Compound concentration: Ropivacaine (15 min): 29888.8 µM; Compound concentration: DTTA (30 min): 18586.4 µM; Compound concentration: Ropivacaine (30 min): 38657.6 µM; Compound concentration: DTTA (1 h): 19990.1 µM; Compound concentration: Ropivacaine (1 h): 41983.6 µM; Compound concentration: DTTA (2 h): 19679 µM; Compound concentration: Ropivacaine (2 h): 41011.1 µM; Compound concentration: DTTA (6 h): 19617.2 µM; Compound concentration: Ropivacaine (6 h): 40777.8 µM; Compound concentration: DTTA (24 h): 22843.9 µM; Compound concentration: Ropivacaine (24 h): 47445.3 µM
5 | CCCCN1CCCCC1C(=O)Nc1c(C)cccc1C.CCCCN1CCCCC1C(=O)Nc1c(C)cccc1C.O=C(O)c1cc2ccccc2c(Cc2c(O)c(C(=O)O)cc3ccccc23)c1O [Preparation Example 12, bis(bupivacaine) pamoate] | 147.5 | 210.1 | 247.4 | 267.2 | 280.2 | 290.8 | 284.8 | 73.6 | 107 | 127.4 | 137.5 | 140 | 149.7 | 142.9 | stable | about 0.3 mM | 
6 | CCCN1CCCC[C@H]1C(=O)Nc1c(C)cccc1C.O=C(O)c1cc2ccccc2c(Cc2c(O)c(C(=O)O)cc3ccccc23)c1O [Preparation Example 9, mono(ropivacaine) pamoate] |  |  |  |  |  |  |  | 345.9 | 601.5 | 880.3 | 1280.8 | 1668.4 | 1953.9 | 2052.3 | stable | about 2.0 mM | Compound concentration: Ropivacaine (5 min): 347.9 µM; Compound concentration: Ropivacaine (15 min): 602.6 µM; Compound concentration: Ropivacaine (30 min): 887 µM; Compound concentration: Ropivacaine (1 h): 1285.6 µM; Compound concentration: Ropivacaine (2 h): 1660.8 µM; Compound concentration: Ropivacaine (6 h): 1944 µM; Compound concentration: Ropivacaine (24 h): 1972 µM
7 | CCCCN1CCCCC1C(=O)Nc1c(C)cccc1C (stereo not shown) [Bupivacaine free base, reference compound] |  |  |  |  |  |  |  |  |  |  |  |  |  |  |  |  | solubility at 24 h (phosphate buffered saline (simulated body fluid), 37 °C, aqueous buffer, thermodynamic from solid, simulated body fluid, 0.01 M PBS at pH 7.4, read-out: Saturated solubility): 1450 µM (≈ 418 µg/mL)
8 | CCCCN1CCCCC1C(=O)Nc1c(C)cccc1C.CCCCN1CCCCC1C(=O)Nc1c(C)cccc1C.O=C(O)c1cc2ccccc2c(Cc2c(O)c(C(=O)O)cc3ccccc23)c1O [Preparation Example 30, bis(bupivacaine) pamoate] | 142.3 | 218.8 | 233.7 | 280.5 | 277.3 | 287.2 | 286.9 | 75.7 | 111.6 | 128.5 | 135.6 | 130.8 | 137.9 | 140.2 | stable | about 0.3 mM | 
9 | CCCCN1CCCCC1C(=O)Nc1c(C)cccc1C.O=C(OC(C(=O)O)C(OC(=O)c1ccccc1)C(=O)O)c1ccccc1 (stereo not shown) [Preparation Example 1, mono(bupivacaine) dibenzoyl tartarate] | 4884.6 | 6987.2 | 7755.2 | 8196 | 7911.7 | 7006.1 | 5767.9 |  |  |  |  |  |  |  |  |  | Compound concentration: DBTA (5 min): 4992 µM; Compound concentration: DBTA (15 min): 7107.7 µM; Compound concentration: DBTA (30 min): 7866.6 µM; Compound concentration: DBTA (1 h): 8284.6 µM; Compound concentration: DBTA (2 h): 8015.5 µM; Compound concentration: DBTA (6 h): 7590.5 µM; Compound concentration: DBTA (24 h): 7303.7 µM
